Measured values as given in article PMC6305398, “Red Fluorescent Chlamydia trachomatis Applied to Live Cell Imaging and Screening for Antibacterial Agents” (Frontiers in Microbiology, 2018).
Converted amounts (≈) assume the structure as drawn. Read-outs that look alike come from different tables or passages of the source.

How the values were obtained:
[1] = ref Davis et al., 2013; cited from earlier work
[2] = system: HeLa cells; assay: in vitro; format: cell-based
Experimental: (§1) HeLa299 cells were inoculated into clear, flat 96-well plates (Nunc, Delta surface, Thermo Fischer Scientific) with a density of 7,000 cells per well and cultured overnight at 37°C with 5% CO2 in […] supplemented with 10% FBS and 2 mM L-glutamine. The following day, the RPMI was replaced with DMEM without phenol red (Life Technologies, Carlsbad, CA, USA) containing 0.5% DMSO with or without test compounds at 25 and 50 μM concentrations incubated at 37°C with 5% CO2 for 48 h. At least three replicate wells for each compound concentration were tested. Wells without cells were used as blank controls. Following this incubation with compounds, cells were washed with DMEM to remove remaining colored compounds and fresh DMEM without phenol red was added before the XTT Cell Proliferation Assay kit was used according to the manufacturer's instructions (ATCC, Manassas, VA, USA). Briefly, activation reagent and XTT reagent were thawed at 37°C, then mixed in a 1:50 ratio with enough volume to add 50 μL to each well. The plates were placed in the 37°C incubator for 2.5 h. The absorbance of each well was then read at 475 nm and 660 nm with a Tecan Infinite m200 plate reader (Tecan, Männedorf, Switzerland). To analyze the data, the 660 nm reading was subtracted from the 475 nm reading to help eliminate non-specific readings from the assay results. Average blank control-well readings were subtracted from those containing cells. Final readings from wells containing compound were compared to DMSO control wells and expressed as percent of control.

[3] = in vitro; format: cell-based; details: human, 48 h, percent of DMSO control; for viability at 25 µM: read-out: HeLa cell viability at 25 μM (%); for viability at 50 µM: read-out: HeLa cell viability at 50 μM (%) (converted)
Experimental: as §1

[4] = system: Trypanosoma brucei; details: ref Zulfiqar et al., 2017; cited from earlier work
[5] = system: mCherry expressing C. trachomatis serovar L2 454/Bu; assay: Primary screen of natural compound library, Chlamydia inclusion count (mCherry imaging and FITC immunostaining in duplicate plates); format: cell-based, Chlamydia trachomatis; details: for inhibition at 10 µM: Chlamydia trachomatis, 48 hpi, HeLa cells, vs DMSO control
Experimental: A general and more detailed protocol for the screening assay is provided in (Supplementary Data Sheet 1) and an overview of the screening method is given in Figure 3. Since inhalation of C. trachomatis aerosols can cause laboratory acquired infections (Sewell, [1995]), all procedures involving handling of live infection in open plates were performed manually inside a class II safety cabinet using 8-channel electronic pipets (Rainin E4 XLS, Mettler Toledo, Barcelona, Spain) and an enclosed aspiration system (Intergra VacuSafe, Zizers, Switzerland).
The primary screen of the 349 open access compound library was performed using the mCherry expressing C. trachomatis serovar L2 454/Bu in clear, flat 96-well plates (Nunc, Delta surface, Thermo Fischer Scientific). The primary screen was done in duplicates in separated plates; one plate was used for mCherry imaging and the other for FITC immunostaining. Cells were seeded at a density of 10,000 cells per well in 100 μl DMEM media 1 day prior to infection in culture media. Chlamydia infection was performed in 30 μl HBSS as described above with a MOI of 0.6 during 1 h at 37°C, 5% CO2. Compounds were diluted to 10 μM in DMEM with a final DMSO concentration of 0.5% and 100 μl per well was added after aspiration of HBSS. The plates were incubated for an additional 47 h at 37°C, 5% CO2 prior to imaging. One of the duplicate plates was used for mCherry imaging and one for FITC immunostaining. For mCherry imaging, HeLa cell nuclei were first stained by addition of 10 μl […] Hoechst per well and incubated at 37°C with 5% CO2 for 20 min. The infected cells were fixed in 4% paraformaldehyde (PFA) for 15 min and washed in PBS before image acquisition. Although fixation was not necessary for the analysis, it inactivated the infectious Chlamydia and enabled later analysis after storage at 4°C. For FITC immunostaining, cells were fixed in 150 μl methanol per well for 10 min, blocked in 1% BSA, 0.25% Tween-20 in PBS and incubated with 1:1,000 polyclonal rabbit anti-chlamydial serum in blocking buffer (Marwaha et al., [2014]). A FITC-conjugated donkey anti-rabbit antibody (Jackson ImmunoResearch) and 1 μg/ml Hoechst staining was used for staining followed by washing with blocking buffer. Images of nuclei (Hoechst-ex386/23 nm) and Chlamydia inclusions (FITC: ex485/20 nm; mCherry: ex549/15 nm) were acquired in the ArrayScan with the 10x objective and counted with the built in software. Chlamydia inclusions in DMSO control wells were used to determine an inclusion size cutoff to exclude small underdeveloped inclusions as well as fluorescent artifacts from the analyses.

[6] = system: T. cruzi; details: ref Zulfiqar et al., 2017; cited from earlier work
[7] = system: mammalian cells; details: cited from earlier work
[8] = system: Staphylococcus aureus; details: ref Beattie et al., 2016; cited from earlier work
[9] = system: Plasmodium falciparum parasites; details: antimalarial activity; ref Choomuenwai et al., 2012; cited from earlier work
[10] = MOI 0.6, FITC immunostaining, read-out: Screen inhibition at 10 μM (%) FITC
[11] = MOI 0.6, mCherry detection, read-out: Screen inhibition at 10 μM (%) mCherry

For `NCCc1c[nH]c2c1C(=O)C1=C(NC=CS1(=O)=O)C2=O` [Compound 10, thiaplakortone A], the “In vitro antimalarial effect, active concentrations” value [1] is given as “low nanomolar concentrations”, the “Toxicity to HeLa cells (authors' call)” value ([2]; non-toxic = viability not below 70% of vehicle control at 25 μM) is given as “toxic” and the viability at 25 µM [3] is given as 5 ± 0.4%. The viability at 50 µM [3] was 5 ± 0.5%, the “Inhibition of Trypanosoma brucei, active concentrations” value [4] was “low micromolar concentrations” and the inhibition at 10 µM [5, 10] was 96%. The inhibition at 10 µM [5, 11] was 100%, the “Inhibition of T. cruzi, active concentrations” value [6] was “low micromolar concentrations” and the “Toxicity in mammalian cells” value ([7]; ref Davis et al., 2013) was “moderate toxicity”.

In the case of `COC1=CC(=O)c2c(O)c3c(c(O)c2C1=O)C[C@](C)(O)C[C@@H]3O` [Compound 5, (1S,3S)-austrocortirubin], the “minimum inhibitory concentration (MIC)” value [8] is listed as 100 µM (≈ 32 µg/mL), the “Reduction of HeLa cell viability” value ([2]; 25 μM) is listed as 95% and the viability at 25 µM [3] is listed as 5 ± 0.5%. For the same molecule, the viability at 50 µM [3] was 5.5%, the IC50 [9] was 1.9 µM and the inhibition at 10 µM [5, 10] was 0%. The inhibition at 10 µM [5, 11] was 13%, the “Inhibition of Chlamydia growth” value ([5]; screen at 10 μM) was “did not inhibit Chlamydia growth” and the “Toxic effects on mammalian cells” value ([7]; ref Choomuenwai et al., 2012, Wang et al., 2015) was “toxic effects”.
